In patent US11976084B2, “Spiropyrrolidine derived antiviral agents” (Enanta Pharmaceuticals, Inc., priority 2020, dated 2024):

Molecular target: SARS-CoV-2 3CL-protease (Severe acute respiratory syndrome coronavirus 2, UniProt P0DTD1)
Assay: SARS-CoV-2 3C-like (3CL) protease fluorescence assay (FRET)
Assay type: biochemical
Settings: recombinant SARS-CoV-2 3CL-protease 10 nM, 30 min preincubation at RT, TAMRA-[…]-Dabcyl-OH substrate, run in duplicate
Protocol: SARS-CoV-2 3C-like (3CL) protease fluorescence assay (FRET): Recombinant SARS-CoV-2 3CL-protease was expressed and purified. TAMRA-[…]-Dabcyl-OH peptide 3CLpro substrate was synthesized. Black, low volume, round-bottom, 384 well microplates were used. In a typical assay, 0.85 μL of test compound was dissolved in DMSO then incubated with SARS-CoV-2 3CL-protease (10 nM) in 10 μL assay buffer (50 mM HEPES [pH 7.5], 1 mM DTT, 0.01% BSA, 0.01% Triton-X 100) for 30 min at RT. Next, 10 μL of 3CL-protease substrate (40 μM) in assay buffer was added and the assays were monitored continuously for 1 h in an Envision multimode plate reader operating in fluorescence kinetics mode with excitation at 540 nm and emission at 580 nm at RT. No compound (DMSO only) and no enzyme controls were routinely included in each plate. All experiments were run in duplicate. Data Analysis: SARS-CoV-2 3CL-protease enzyme activity was measured as initial velocity of the linear phase (RFU/s) and normalized to controlled samples DMSO (100% activity) and no enzyme (0% activity) to determine percent residual activity at various concentrations of test compounds (0-10 μM). Data were fitted to normalized activity (variable slope) versus concentration fit in GraphPad Prism 7 to determine IC50.

**Q.** Which IC50 does the source give for `COc1cccc2[nH]c(C(=O)N3C[C@@H]4CCC[C@@H]4[C@H]3C(=O)N3C[C@]4(C[C@H]3C#N)C(=O)Nc3ccccc34)cc12` [Example 1] here?
**A.** < 100 nM

**Q.** How did the IC50 turn out when `COc1cccc2[nH]c(C(=O)N3CC4(CC4)C[C@H]3C(=O)N3C[C@]4(C[C@H]3C#N)C(=O)Nc3ccccc34)cc12` [Example 2] was run?
**A.** 100 to 1000 nM

**Q.** `COc1cccc2oc(C(=O)N3C[C@H]4[C@@H]([C@H]3C(=O)N3C[C@]5(C[C@H]3C#N)C(=O)Nc3ccccc35)C4(C)C)cc12` [Example 3] was tested. Which IC50 did it give?
**A.** < 100 nM

**Q.** With `COc1cccc2[nH]c(C(=O)N3C[C@@]4(C[C@H]3C(=O)N3C[C@]5(C[C@H]3C#N)C(=O)Nc3ccccc35)CC4(F)F)cc12` [Example 4] as the compound, how does the IC50 read?
**A.** 100 to 1000 nM

**Q.** How did the IC50 turn out when `COc1cccc2[nH]c(C(=O)N3[C@@H]4C[C@@H]4C[C@H]3C(=O)N3C[C@]4(C[C@H]3C#N)C(=O)Nc3ccccc34)cc12` [Example 5] was run?
**A.** < 100 nM

**Q.** `N#C[C@@H]1C[C@@]2(CN1C(=O)[C@@H]1[C@H]3CCC[C@H]3CN1C(=O)OCc1ccccc1)C(=O)Nc1ccccc12` [Example 6] was tested. Which IC50 did it give?
**A.** 100 to 1000 nM

**Q.** For `N#C[C@@H]1C[C@@]2(CN1C(=O)[C@@H]1[C@H]3CCC[C@H]3CN1C(=O)c1cc3c(F)cc(F)cc3[nH]1)C(=O)Nc1ccccc12` [Example 7], which IC50 is on record?
**A.** 100 to 1000 nM

**Q.** `CC1(C)[C@@H]2[C@@H](C(=O)N3C[C@]4(C[C@H]3C#N)C(=O)Nc3ccccc34)N(C(=O)c3cc4c(OC(F)F)cccc4[nH]3)C[C@@H]21` [Example 8] was tested. Which IC50 did it give?
**A.** 100 to 1000 nM
